Measured values taken from the NIST ThermoML archive (doi:10.1016/j.jct.2016.02.006).
Numbers after ± are expanded uncertainties.

Assay: not given
Conditions: Crystal; DTA

Work on C=C(C)[C@@H]1CC[C@]2(CO)CC[C@]3(C)[C@H](CC[C@@H]4[C@@]5(C)CC[C@H](O)C(C)(C)[C@@H]5CC[C@]43C)[C@@H]12 [betulin] yielded a Normal melting temperature of 255.0 ± 0.4 °C.

Assay: Molar enthalpy of transition or fusion
Conditions: Crystal; DSC

For C=C(C)[C@@H]1CC[C@]2(CO)CC[C@]3(C)[C@H](CC[C@@H]4[C@@]5(C)CC[C@H](O)C(C)(C)[C@@H]5CC[C@]43C)[C@@H]12 [betulin], the “Molar enthalpy of transition or fusion” value was 13.2 ± 0.359 kcal/mol.

Assay: refractive index (Na D-line) (dimensionless)
Conditions: 293.15 K; 101.33 kPa; Liquid; Standard Abbe refractometry

In order of rising refractive index:
1. O [water]  1.3329 ± 0.0004
2. CC#N [acetonitrile]  1.3439 ± 0.0004
3. CCCCCCCC [octane]  1.3978 ± 0.0004
4. CCC(C)O (stereo not given) [butan-2-ol]  1.3983 ± 0.0004
5. CCCCCO [pentan-1-ol]  1.4098 ± 0.0004
6. CCCCCCCCCCCC [dodecane]  1.4218 ± 0.0004
7. CCCCCCCCO [octan-1-ol]  1.4291 ± 0.0004
8. CN(C)C=O [dimethylformamide]  1.4304 ± 0.0004
9. CCCCCCCCCO [nonan-1-ol]  1.4334 ± 0.0004
10. CCCCCCCCCCCCCCCC [hexadecane]  1.4346 ± 0.0004
11. NCCO [2-aminoethan-1-ol]  1.4542 ± 0.0004
12. CN1CCCC1=O [N-methylpyrrolidone]  1.469 ± 0.0004
13. O=CN1CCOCC1 [N-formylmorpholine]  1.4849 ± 0.0004
